Source: patent US10800792B2, “Inhibitors of Bruton's tyrosine kinase and method of their use” (JANSSEN PHARMACEUTICA NV, priority 2015, dated 2020)

Molecular target: unphosphorylated-BTK kinase domain (UP-BTK), GST-tagged human BTK (389-659aa) (Homo sapiens (Human), UniProt Q06187)
Assay: BTK kinase Lanthascreen binding assay
Details: unphosphorylated-BTK kinase domain, 50 nM Tracer 236, 60 minutes; pIC50 = negative log of the IC50 in molar
Procedure, shortened: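 A fluorescent tracer is bound to unphosphorylated BTK; test compound is added to compete it off; the Lanthascreen signal is read and IC50 is fitted, then reported as its negative log in molar.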

Chain of unphosphorylated-BTK kinase domain (UP-BTK), GST-tagged human BTK (389-659aa) (Q06187 389-659): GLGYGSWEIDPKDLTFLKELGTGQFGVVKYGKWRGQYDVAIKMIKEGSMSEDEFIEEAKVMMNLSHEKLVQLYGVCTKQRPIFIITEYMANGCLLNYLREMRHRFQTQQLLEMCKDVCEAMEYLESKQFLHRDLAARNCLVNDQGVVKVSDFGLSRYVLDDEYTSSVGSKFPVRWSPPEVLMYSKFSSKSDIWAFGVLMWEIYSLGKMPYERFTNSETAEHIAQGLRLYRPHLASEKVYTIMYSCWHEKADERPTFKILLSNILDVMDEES

BTK_I_binding pIC50	Compound
6.3	C=CC(=O)N1CCC[C@@H](NC(=O)c2sc3nccc4c3c2NC(=O)N4c2ccc(-c3ccccc3)cc2)C1 [Example 423, (R)-5-([1,1′-Biphenyl]-4-yl)-N-(1-acryloylpiperidin-3-yl)-4-oxo-4,5-dihydro-3H-1-thia-3,5,8-triazaacenaphthylene-2-carboxamide]
7.2	CN(C)CC(=O)N1CCC[C@@H](NC(=O)c2sc3nccc4c3c2NC(=O)N4c2ccc(Oc3ccccc3)cc2)C1 [Example 424, (R)—N-(1-(2-(Dimethylamino)acetyl)piperidin-3-yl)-4-oxo-5-(4-phenoxyphenyl)-4,5-dihydro-3H-1-thia-3,5,8-triazaacenaphthylene-2-carboxamide]
7.3	CN(C)CC(=O)N1CC[C@@H](NC(=O)c2sc3nccc4c3c2NC(=O)N4c2ccc(Oc3ccccc3)cc2)C1 [Example 425, (R)—N-(1-(2-(Dimethylamino)acetyl)pyrrolidin-3-yl)-4-oxo-5-(4-phenoxyphenyl)-4,5-dihydro-3H-1-thia-3,5,8-triazaacenaphthylene-2-carboxamide]
6.9	O=C(N[C@@H]1CCCNC1)c1sc2nccc3c2c1NC(=O)N3c1cccc(-c2ccccc2)c1 [Example 426, (R)-5-([1,1′-Biphenyl]-3-yl)-4-oxo-N-(piperidin-3-yl)-4,5-dihydro-3H-1-thia-3,5,8-triazaacenaphthylene-2-carboxamide]
6.3	C=CC(=O)N1CCC[C@@H](NC(=O)c2sc3nccc4c3c2NC(=O)N4c2cc3ccccc3s2)C1 [Example 427, (R)—N-(1-Acryloylpiperidin-3-yl)-5-(benzo[b]thiophen-2-yl)-4-oxo-4,5-dihydro-3H-1-thia-3,5,8-triazaacenaphthylene-2-carboxamide]
<5	O=C(N[C@@H]1CCCNC1)c1sc2nccc3c2c1NC(=O)N3c1cc2ccccc2s1 [Example 428, (R)-5-(Benzo[b]thiophen-2-yl)-4-oxo-N-(piperidin-3-yl)-4,5-dihydro-3H-1-thia-3,5,8-triazaacenaphthylene-2-carboxamide]
<5	O=C(N[C@@H]1CCCNC1)c1sc2nccc3c2c1NC(=O)N3c1ccc2ccccc2c1 [Example 429, (R)-5-(Naphthalen-2-yl)-4-oxo-N-(piperidin-3-yl)-4,5-dihydro-3H-1-thia-3,5,8-triazaacenaphthylene-2-carboxamide]
6.3	O=C(N[C@@H]1CCCNC1)c1sc2nccc3c2c1NC(=O)N3c1ccc(Cc2ccccc2)cc1 [Example 430, (R)-5-(4-Benzylphenyl)-4-oxo-N-(piperidin-3-yl)-4,5-dihydro-3H-1-thia-3,5,8-triazaacenaphthylene-2-carboxamide]
<5	O=C(N[C@@H]1CCCNC1)c1sc2nccc3c2c1NC(=O)N3c1ccn(Cc2ccccc2)n1 [Example 431, (R)-5-(1-Benzyl-1H-pyrazol-3-yl)-4-oxo-N-(piperidin-3-yl)-4,5-dihydro-3H-1-thia-3,5,8-triazaacenaphthylene-2-carboxamide]
7.3	Cc1cc(Oc2ccccc2)ccc1N1C(=O)Nc2c(C(=O)NC3(CO)CCOCC3)sc3nccc1c23 [Example 436, N-(4-(Hydroxymethyl)tetrahydro-2H-pyran-4-yl)-5-(*S)-(2-methyl-4-phenoxyphenyl)-4-oxo-4,5-dihydro-3H-1-thia-3,5,8-triazaacenaphthylene-2-carboxamide]
5.8	Cc1cc(Oc2ccccc2)ccc1N1C(=O)Nc2c(C(=O)NC3(CO)CCOCC3)sc3nccc1c23 [Example 437, N-(4-(Hydroxymethyl)tetrahydro-2H-pyran-4-yl)-5-(*R)-(2-methyl-4-phenoxyphenyl)-4-oxo-4,5-dihydro-3H-1-thia-3,5,8-triazaacenaphthylene-2-carboxamide]
